Experimental data as given in PubChem BioAssay (NCI).
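Following 48 hours of exposure in 96-well plates, responses at five concentrations were used to interpolate endpoints linearly. TGI marks complete inhibition of growth.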

Experiments:
Test in all cases: NCI tumour cell line growth inhibition, 48 h
[1] = tested on: OVCAR-3 ovarian
[2] = tested on: SK-MEL-2 melanoma
[3] = tested on: COLO 205 colon
[4] = tested on: SF-268 CNS
[5] = tested on: OVCAR-8 ovarian
[6] = tested on: SNB-19 CNS
[7] = tested on: A549 NSCLC
[8] = tested on: UACC-62 melanoma
[9] = tested on: SNB-75 CNS
[10] = tested on: DMS 114 small cell lung
[11] = tested on: HCT-116 colon
[12] = tested on: SK-MEL-28 melanoma
[13] = tested on: NCI-H522 lung
[14] = tested on: MOLT-4 leukemia
[15] = tested on: BT-549 breast
[16] = tested on: HS 578T breast
[17] = tested on: NCI/ADR-RES ovarian
[18] = tested on: MCF7 breast
[19] = tested on: T-47D breast
[20] = tested on: MDA-N

## O=C1NC(=O)C(CCC(=O)c2ccc3ccccc3c2)C(=O)N1
[1]
  TGI: > 100 µM
[2]
  TGI: > 100 µM
[3]
  TGI: > 100 µM
[4]
  TGI: > 100 µM
[5]
  TGI: > 100 µM
[6]
  TGI: > 100 µM
[7]
  TGI: > 100 µM
[8]
  TGI: > 100 µM
[9]
  TGI: > 100 µM
[10]
  TGI: > 100 µM
[11]
  TGI: > 100 µM
[12]
  TGI: > 100 µM
[13]
  TGI: 38.5 µM
[14]
  TGI: > 100 µM

## COC(=O)c1cc2c(cc1CC1Cc3cc4c(cc3C1=O)CCC4)CCC2 (stereo unspecified)
[1]
  TGI: > 100 µM
[2]
  TGI: > 100 µM
[15]
  TGI: > 100 µM
[3]
  TGI: > 100 µM
[16]
  TGI: > 100 µM
[17]
  TGI: > 100 µM
[18]
  TGI: > 100 µM
[4]
  TGI: > 100 µM
[5]
  TGI: > 100 µM
[6]
  TGI: > 100 µM
[7]
  TGI: > 100 µM
[8]
  TGI: > 100 µM
[19]
  TGI: > 100 µM
[9]
  TGI: > 100 µM
[11]
  TGI: > 100 µM
[12]
  TGI: > 100 µM
[13]
  TGI: > 100 µM
[14]
  TGI: 57.5 µM
[20]
  TGI: > 100 µM

## CCOC(=O)C1(Cc2ccccc2)C=CN(C(=O)c2ccccc2)C=C1
[1]
  TGI: > 100 µM
[2]
  TGI: 49.6 µM
[15]
  TGI: > 100 µM
[3]
  TGI: 37.5 µM
[16]
  TGI: > 100 µM
[17]
  TGI: > 100 µM
[18]
  TGI: > 100 µM
[4]
  TGI: > 100 µM
[5]
  TGI: > 100 µM
[6]
  TGI: > 100 µM
[7]
  TGI: > 100 µM
[8]
  TGI: 72.9 µM
[19]
  TGI: 78.8 µM
[9]
  TGI: 64.2 µM
[11]
  TGI: > 100 µM
[12]
  TGI: > 100 µM
[13]
  TGI: 76 µM
[14]
  TGI: 73.6 µM
[20]
  TGI: 65.2 µM

## O=C(NC12CC3CC(CC(F)(C3)C1)C2)c1ccccc1
[1]
  TGI: > 100 µM
[2]
  TGI: > 100 µM
[3]
  TGI: > 100 µM
[5]
  TGI: > 100 µM
[6]
  TGI: > 100 µM
[7]
  TGI: > 100 µM
[8]
  TGI: > 100 µM
[9]
  TGI: > 100 µM
[10]
  TGI: > 100 µM
[11]
  TGI: > 100 µM
[12]
  TGI: > 100 µM
[13]
  TGI: > 100 µM
[14]
  TGI: > 100 µM

## C/C(Cl)=N/OC(=O)Nc1ccc(S(N)(=O)=O)c(C)c1
[1]
  TGI: 8.9 µM
[2]
  TGI: 33.5 µM
[15]
  TGI: 25.1 µM
[3]
  TGI: 4.14 µM
[16]
  TGI: > 79.4 µM
[17]
  TGI: > 55.5 µM
[18]
  TGI: 29.1 µM
[4]
  TGI: > 61.3 µM
[5]
  TGI: > 56.2 µM
[6]
  TGI: 32.3 µM
[7]
  TGI: 38.3 µM
[8]
  TGI: 35.6 µM
[19]
  TGI: 9.98 µM
[9]
  TGI: 34.2 µM
[11]
  TGI: 25 µM
[12]
  TGI: 30.6 µM
[13]
  TGI: 3.45 µM
[14]
  TGI: 6.12 µM
[20]
  TGI: 24.4 µM

## CN(CCC(=O)O)C1=Nc2ccc(Cl)cc2C(c2ccccc2)=[N+]([O-])C1
[1]
  TGI: > 100 µM
[2]
  TGI: > 100 µM
[15]
  TGI: > 100 µM
[3]
  TGI: > 100 µM
[16]
  TGI: > 100 µM
[17]
  TGI: > 100 µM
[18]
  TGI: > 100 µM
[4]
  TGI: > 100 µM
[5]
  TGI: > 100 µM
[6]
  TGI: > 100 µM
[7]
  TGI: > 100 µM
[8]
  TGI: > 100 µM
[19]
  TGI: > 100 µM
[9]
  TGI: > 100 µM
[11]
  TGI: > 100 µM
[12]
  TGI: > 100 µM
[13]
  TGI: > 100 µM
[14]
  TGI: > 100 µM
[20]
  TGI: > 100 µM

## c1ccc(-c2cn3c(nc4ccccc43)c(-c3ccccc3)n2)cc1
[1]
  TGI: > 100 µM
[2]
  TGI: > 62.5 µM
[15]
  TGI: > 100 µM
[3]
  TGI: > 100 µM
[16]
  TGI: > 94.2 µM
[17]
  TGI: > 100 µM
[18]
  TGI: > 100 µM
[4]
  TGI: > 100 µM
[5]
  TGI: 40.3 µM
[6]
  TGI: 81.7 µM
[7]
  TGI: > 100 µM
[8]
  TGI: > 55.6 µM
[19]
  TGI: > 71.3 µM
[9]
  TGI: > 32.9 µM
[11]
  TGI: > 100 µM
[12]
  TGI: > 100 µM
[13]
  TGI: > 100 µM
[14]
  TGI: > 100 µM
[20]
  TGI: > 31.6 µM

## NC(=S)N1N=C2c3ccccc3CC[C@@H]2[C@@H]1c1ccccc1
[1]
  TGI: 12.7 µM
[2]
  TGI: > 48.5 µM
[3]
  TGI: 16.8 µM
[4]
  TGI: 49.5 µM
[5]
  TGI: 72.3 µM
[6]
  TGI: > 100 µM
[7]
  TGI: > 60.2 µM
[8]
  TGI: 26.1 µM
[9]
  TGI: 35.6 µM
[10]
  TGI: 8.01 µM
[11]
  TGI: 19.1 µM
[13]
  TGI: 4.53 µM
[14]
  TGI: 48 µM

## O=C(O)CCC(=O)Nc1ccc2ccccc2c1
[1]
  TGI: > 100 µM
[2]
  TGI: > 100 µM
[15]
  TGI: > 100 µM
[3]
  TGI: > 100 µM
[16]
  TGI: > 100 µM
[17]
  TGI: > 100 µM
[18]
  TGI: > 100 µM
[4]
  TGI: > 100 µM
[5]
  TGI: > 100 µM
[6]
  TGI: > 100 µM
[7]
  TGI: > 100 µM
[8]
  TGI: > 100 µM
[19]
  TGI: > 100 µM
[9]
  TGI: > 100 µM
[11]
  TGI: > 100 µM
[12]
  TGI: > 100 µM
[13]
  TGI: > 100 µM
[14]
  TGI: > 100 µM
[20]
  TGI: > 100 µM

## COC1(C)CP(=O)(OC(C)C)CC(C)=C1Cl (stereo unspecified)
[1]
  TGI: 24.2 µM
[2]
  TGI: 45.9 µM
[15]
  TGI: 46.6 µM
[3]
  TGI: 30.2 µM
[16]
  TGI: > 100 µM
[17]
  TGI: > 100 µM
[18]
  TGI: 18.6 µM
[4]
  TGI: > 100 µM
[5]
  TGI: > 100 µM
[6]
  TGI: 63.7 µM
[7]
  TGI: > 100 µM
[8]
  TGI: 25.6 µM
[19]
  TGI: 55.6 µM
[9]
  TGI: > 100 µM
[11]
  TGI: 21 µM
[12]
  TGI: 61.3 µM
[13]
  TGI: 24.8 µM
[14]
  TGI: > 100 µM
[20]
  TGI: 47.7 µM

## CCCCCCCCCCCCN(CC(O)C(O)C(OC1OC(CO)C(O)C(O)C1O)C(O)CO)C(=O)CCCCCCCCCCC (stereo unspecified)
[1]
  TGI: 49.2 µM
[2]
  TGI: 58.8 µM
[15]
  TGI: 40.4 µM
[3]
  TGI: 35.3 µM
[16]
  TGI: 82.7 µM
[17]
  TGI: 49.7 µM
[18]
  TGI: > 100 µM
[4]
  TGI: 43.6 µM
[5]
  TGI: 46.7 µM
[6]
  TGI: 35.4 µM
[7]
  TGI: 55.3 µM
[8]
  TGI: 38.8 µM
[19]
  TGI: 62.3 µM
[9]
  TGI: 35 µM
[11]
  TGI: 36.4 µM
[12]
  TGI: 31.9 µM
[13]
  TGI: 52.9 µM
[14]
  TGI: 50.1 µM
[20]
  TGI: 38.2 µM

## COc1cc2ncnc(Nc3cccc(Cl)c3)c2cc1OC
[1]
  TGI: 35.8 µM
[2]
  TGI: 30 µM
[15]
  TGI: 13.7 µM
[3]
  TGI: > 70.5 µM
[16]
  TGI: 25 µM
[17]
  TGI: 20.3 µM
[18]
  TGI: 72.2 µM
[4]
  TGI: 53.9 µM
[5]
  TGI: 26.1 µM
[6]
  TGI: 82.1 µM
[7]
  TGI: 49 µM
[8]
  TGI: 22 µM
[19]
  TGI: > 67.1 µM
[9]
  TGI: 13.4 µM
[11]
  TGI: 46.2 µM
[12]
  TGI: 42.6 µM
[13]
  TGI: 18.4 µM
[14]
  TGI: 54.2 µM
[20]
  TGI: 42.6 µM
